Experiment [1] deals with T1, Type II 5α-Reductase from Human Prostate (Homo sapiens, UniProt P31213).
T1 construct: The same procedure as above was used for preparations using tissue from prostate surgery; from tissue; host or cells: human prostate tissue from surgery, homogenate, 100,000×g pellet
T1 sequence (P31213 1-254): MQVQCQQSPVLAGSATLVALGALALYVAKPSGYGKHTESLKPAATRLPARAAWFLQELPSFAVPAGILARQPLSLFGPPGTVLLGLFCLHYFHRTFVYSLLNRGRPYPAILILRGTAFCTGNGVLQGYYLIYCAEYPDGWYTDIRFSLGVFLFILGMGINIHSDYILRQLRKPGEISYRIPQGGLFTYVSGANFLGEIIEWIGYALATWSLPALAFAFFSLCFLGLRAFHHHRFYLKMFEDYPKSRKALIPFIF
Briefly: Human Type II 5α-reductase assay (conversion of [3H]-testosterone to 5α-reduced metabolites). The experiment is classed as biochemical.

Experiment [2] deals with T2, Type I 5α-Reductase from Human Scalp (Homo sapiens, UniProt P18405).
T2 construct: Scalp punch biopsies from graft recipient sites were obtained from human hair transplant procedures; from tissue; host or cells: human scalp punch biopsies (hair transplant graft recipient sites), homogenate, 100,000×g pellet
T2 sequence (P18405 1-259): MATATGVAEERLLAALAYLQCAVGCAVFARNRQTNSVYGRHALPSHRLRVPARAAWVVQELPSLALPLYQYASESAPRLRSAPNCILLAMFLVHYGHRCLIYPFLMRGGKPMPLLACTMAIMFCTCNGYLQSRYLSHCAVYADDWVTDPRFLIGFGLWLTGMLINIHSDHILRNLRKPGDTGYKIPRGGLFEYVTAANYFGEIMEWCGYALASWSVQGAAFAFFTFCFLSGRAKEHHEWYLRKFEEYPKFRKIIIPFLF
Description: Human Type I 5α-reductase assay (conversion of [3H]-testosterone to 5α-reduced metabolites). The experiment is classed as biochemical.

[3] abbreviates: pH 5.5, 0.3 μM, sodium acetate pH 5.5, 25°, 30 min, compared to control reaction mixtures, read-out: percent inhibition of Type II AR.
Setting [4] is: pH 7.5, 0.3 μM, 50 nM [3H]-testosterone, pH 7.5, 25°, 180 min, compared to control reaction mixtures, read-out: percent inhibition of Type I AR.

SMILES strings stand for the structures. Like-named read-outs stand apart in the source and are kept apart here.

By inhibition is commonly meant how much of the control response was suppressed. Take `CN1C(=O)CC[C@]2(C)c3ccc(-c4ccc5c6c(cccc46)CC5)cc3CC[C@@H]12` [Example 66, (+)-(4aR)-(10bR)-4-methyl-8-(5-acenaphthenyl)-10b-methyl-1,2,3,4,4a,5,6,10b-octahydrobenzo[f]quinolin-3-one]: the inhibition at 0.3 µM in experiment [1] (setting [3]) worked out at 33%; in experiment [2] (setting [4]), 67%.

As to `C[C@]12CCC(=O)N[C@@H]1CCc1cc(Sc3cccc(Cl)c3)ccc12` [Example 8, (+)-(4aR)-(10bR)-8-(3-chlorophenylthio)-10b-methyl-1,2,3,4,4a,5,6,10b-octahydrobenzo[f]quinolin-3-one], the inhibition at 0.3 µM stood at 59% in experiment [1] (setting [3]) and 22% in experiment [2] (setting [4]).

With `Cc1ccc(-c2ccc3c(c2)CC[C@H]2N(C)C(=O)CC[C@]32C)c2ccccc12` [Example 65, (+)-(4aR)-(10bR)-4-methyl-8-(1-[4-methyl]naphthyl)-10b-methyl-1,2,3,4,4a,5,6,10b-octahydrobenzo[f]quinolin-3-one], the inhibition at 0.3 µM in experiment [1] (setting [3]) is 42%; in experiment [2] (setting [4]) it was 79%.

Regarding `Cc1ccc(C)c2sc(Sc3ccc4c(c3)CC[C@H]3N(C)C(=O)CC[C@]43C)nc12` [Example 185, (+)-(4aR)-(10bR)-4-methyl-8-(4,7-dimethyl-2-benzothiazolylthio)-10b-methyl-1,2,3,4,4a,5,6,10b-octahydrobenzo[f]-quinolin-3-one], the inhibition at 0.3 µM in experiment [1] (setting [3]) was 90%; in experiment [2] (setting [4]), 88%.

As for `CN1C(=O)CC[C@]2(C)c3ccc(-c4cc5c6c(c4)N(C(=O)c4ccccc4)C[C@@H]6C[C@H](N)C5)cc3CC[C@@H]12` [Example 226, (+)-(4aR)-(10bR)-4-methyl-8-(2aR,4S-1-benzoyl-4-amino-2,2a,3,4-tetrahydrobenz[cd]-1H-indol-7-yl)-10b-methyl-1,2,3,4,4a,5,6,10b-octahydrobenzo[f]quinolin-3-one], the values for the inhibition at 0.3 µM in experiment [1] (setting [3]) and in experiment [2] (setting [4]) were 8% and 16%, respectively.

Regarding `Cc1ccc(Sc2ccc3c(c2)CC[C@H]2NC(=O)CC[C@]32C)cc1` [Example 6, (+)-(4aR)-(10bR)-8-(4-methylphenylthio)-10b-methyl-1,2,3,4,4a,5,6,10b-octahydrobenzo [f]quinolin-3-one], the results for the inhibition at 0.3 µM in experiment [1] (setting [3]) and in experiment [2] (setting [4]) were 23% and 11%, respectively.

As for `COc1ccccc1Sc1ccc2c(c1)CC[C@H]1NC(=O)CC[C@]21C` [Example 12, (+)-(4aR)-(10bR)-8-(2-methoxyphenylthio)-10b-methyl-1,2,3,4,4a,5,6,10b-octahydrobenzo[f]quinolin-3-one], the inhibition at 0.3 µM was determined as 22% in experiment [1] (setting [3]) and 16% in experiment [2] (setting [4]).

In the case of `CN1C(=O)CC[C@]2(C)c3ccc(Sc4nc5ccccc5s4)cc3CC[C@@H]12` [Example 112, (4aR)-(10bR)-4,10b-dimethyl-8-(2-benzothiazolylthio)-1,2,3,4,4a,5,6,10b-octahydrobenzo[f]quinolin-3-one], the “percent inhibition of Type II AR” value in experiment [1] (0.3 μM, sodium acetate pH 5.5, 25°, 30 min, compared to control reaction mixtures) is 92%. Also, the inhibition at 0.3 µM in experiment [1] (setting [3]) worked out at 90%; in experiment [2] (setting [4]), 64%.

In the case of `CN1C(=O)CC[C@]2(C)c3ccc(-c4ccc5ncccc5c4)cc3CC[C@@H]12` [Example 244, (+)-(4aR)-(10bR)-4-methyl-8-(6-quinolinyl)-10b-methyl-1,2,3,4,4a,5,6,10b-octahydrobenzo[f]quinolin-3-one], the inhibition at 0.3 µM in experiment [1] (setting [3]) came to 32%; in experiment [2] (setting [4]), 51%.

`CN1C(=O)CC[C@]2(C)c3ccc(Sc4nccc5sccc45)cc3CC[C@@H]12` [Example 175, (+)-(4aR)-(10bR)-4-methyl-8-(4-thieno [3,2-c]pyridylthio)-10b-methyl-1,2,3,4,4a,5,6,10b-octahydrobenzo[f]quinolin-3-on]: the inhibition at 0.3 µM in experiment [1] (setting [3]) amounted to 40%; in experiment [2] (setting [4]), 58%.

Regarding `CC(=O)N1CCc2cc(-c3ccc4c(c3)CC[C@H]3N(C)C(=O)CC[C@]43C)cc([N+](=O)[O-])c21` [Example 237, (+)-(4aR)-(10bR)-4-methyl-8-(1-acetyl-7-nitroindolin-5-yl)-10b-methyl-1,2,3,4,4a,5,6,10b-octahydrobenzo[f]quinolin-3-one], the inhibition at 0.3 µM in experiment [1] (setting [3]) stood at 13%; in experiment [2] (setting [4]), 33%.

As to `CN1C(=O)CC[C@]2(C)c3ccc(Sc4nc5c(-c6ccccc6)cccc5s4)cc3CC[C@@H]12` [Example 184, (+)-(4aR)-(10bR)-4-methyl-8-(4-phenyl-2-benzothiazolylthio)-10b-methyl-1,2,3,4,4a,5,6,10b-octahydrobenzo[f]quinolin-3-one], the inhibition at 0.3 µM in experiment [1] (setting [3]) worked out at 81%; in experiment [2] (setting [4]), 73%.

As for `CN1C(=O)CC[C@]2(C)c3ccc(-c4ccncc4)cc3CC[C@@H]12` [Example 235, (+)-(4aR)-(10bR)-4-methyl-8-(4-pyridinyl)-10b-methyl-1,2,3,4,4a,5,6,10b-octahydrobenzo[f]quinolin-3-one], the inhibition at 0.3 µM in experiment [1] (setting [3]) was found to be 12%; in experiment [2] (setting [4]), 28%.

On to `CN1C(=O)CC[C@]2(C)c3ccc(Sc4nc5ccccc5o4)cc3CC[C@@H]12` [Example 150, (+)-(4aR)-(10bR)-4-methyl-8-(2-benzoxazolylthio)-10b-methyl-1,2,3,4,4a,5,6,10b-octahydrobenzo[f]quinolin-3-one], for which the figures for the inhibition at 0.3 µM in experiment [1] (setting [3]) and in experiment [2] (setting [4]) were 69% and 67%, respectively.

With `CN1C(=O)CC[C@]2(C)c3ccc(NC(=O)c4cccc(N)c4)cc3CC[C@@H]12` [Example 270, (4aR)-(10bR)-4,10b-dimethyl-8-(3-aminobenzoylamino)-1,2,3,4,4a,5,6,10b-octahydrobenzo[f]quinolin-3-one], the inhibition at 0.3 µM in experiment [1] (setting [3]) is 13%; in experiment [2] (setting [4]) it was 18%.

Turning to `CN(C)CCN1C(=O)c2cccc3c(-c4ccc5c(c4)CC[C@H]4N(C)C(=O)CC[C@]54C)ccc(c23)C1=O` [Example 224, (+)-(4aR)-(10bR)-4-methyl-8-(2-(2-dimethylaminoethyl)-1H-benzo<de>isoquinolin-6-yl-1,3-(2H)dione)-10b-methyl-1,2,3,4,4a,5,6,10b-octahydrobenzo[f]quinolin-3-one], the inhibition at 0.3 µM in experiment [1] (setting [3]) worked out at 20%; in experiment [2] (setting [4]), 71%.

With `CNS(=O)(=O)c1ccc(-c2ccc3c(c2)CC[C@H]2N(C)C(=O)CC[C@]32C)cc1` [Example 123], the inhibition at 0.3 µM in experiment [1] (setting [3]) stood at 27%; in experiment [2] (setting [4]) it was 10%.

As for `CN1C(=O)CC[C@]2(C)c3ccc(-c4ccc5c(c4)CCC5=O)cc3CC[C@@H]12` [Example 207, (+)-(4aR)-(10bR)-4-methyl-8-(1-oxo-5-indanyl)-10b-methyl-1,2,3,4,4a,5,6,10b-octahydrobenzo[f]quinolin-3-one], the values for the inhibition at 0.3 µM in experiment [1] (setting [3]) and in experiment [2] (setting [4]) were 16% and 45%, respectively.

`CN1C(=O)CC[C@]2(C)c3ccc(-c4cc(F)cc(C(F)(F)F)c4)cc3CC[C@@H]12` [Example 216, (+)-(4aR)-(10bR)-4-methyl-8-(3-fluoro-5-trifluoromethylphenyl)-10b-methyl-1,2,3,4,4a,5,6,10b-octahydrobenzo[f]-quinolin-3-one]: the inhibition at 0.3 µM in experiment [1] (setting [3]) amounted to 24%; in experiment [2] (setting [4]), 78%.

Regarding `CN1C(=O)CC[C@]2(C)c3ccc(-c4cc(C(C)(C)C)c(O)c(C(C)(C)C)c4)cc3CC[C@@H]12` [Example 30, (+)-(4aR)-(10bR)-4-methyl-8-(3,5-di [t-butyl]-4-hydroxyphenyl)-10b-methyl-1,2,3,4,4a,5,6,10b-octahydrobenzo[f]quinolin-3-one], the inhibition at 0.3 µM in experiment [1] (setting [3]) amounted to 21%; in experiment [2] (setting [4]) it was 19%.

With `CN1C(=O)CC[C@]2(C)c3ccc(-c4ccc(C(N)=O)cc4)cc3CC[C@@H]12` [Example 213, (+)-(4aR)-(10bR)-4-methyl-8-(4-carboxamidophenyl)-10b-methyl-1,2,3,4,4a,5,6,10b-octahydrobenzo[f]quinolin-3-one], the values for the inhibition at 0.3 µM in experiment [1] (setting [3]) and in experiment [2] (setting [4]) were 28% and 64%, respectively.

Regarding `CN1C(=O)CC[C@]2(C)c3ccc(Sc4nc5c(OC(F)(F)F)cccc5s4)cc3CC[C@@H]12` [Example 188, (+)-(4aR)-(10bR)-4-methyl-8-(4-trifluoromethoxy-2-benzothiazolylthio)-10b-methyl-1,2,3,4,4a,5,6,10b-octahydrobenzo[f]-quinolin-3-one], the results for the inhibition at 0.3 µM in experiment [1] (setting [3]) and in experiment [2] (setting [4]) were 78% and 88%, respectively.

Turning to `CN1C(=O)CC[C@]2(C)c3ccc(-c4ccc(C(F)(F)F)cc4F)cc3CC[C@@H]12` [Example 210, (+)-(4aR)-(10bR)-4-methyl-8-(2-fluoro-4-trifluoromethylphenyl)-10b-methyl-1,2,3,4,4a,5,6,10b-octahydrobenzo[f]-quinolin-3-one], the inhibition at 0.3 µM in experiment [1] (pH 5.5, read-out: percent inhibition of Type II AR) worked out at 38%; in experiment [2] (pH 7.5, read-out: percent inhibition of Type I AR) it was 81%.

The record behind these values is patent publication US5622962A, “5α-reductase inhibitors” (priority 1995, dated 1997).
